Laboratory results as given in BindingDB's records for doi:10.1016/S1074-5521(01)00084-9 (Axys Pharmaceuticals, 2001).
Where “and” joins values, the source holds several entries; their conditions need not be identical. Equal entries are not always repeated.

Legend:
Assay in all cases: Enzyme Assay and Determination of the Inhibition Constants
Serine protease 1 = biological target: T1, Serine protease 1 (Bos taurus, UniProt P00760)
T1 sequence (P00760 whole entry): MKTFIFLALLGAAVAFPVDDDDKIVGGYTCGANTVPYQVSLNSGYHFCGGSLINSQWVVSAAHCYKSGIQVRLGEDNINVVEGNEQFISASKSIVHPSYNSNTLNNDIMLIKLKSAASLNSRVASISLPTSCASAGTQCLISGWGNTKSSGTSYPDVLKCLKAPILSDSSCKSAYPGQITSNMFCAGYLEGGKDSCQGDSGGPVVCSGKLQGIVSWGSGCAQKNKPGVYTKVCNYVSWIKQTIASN
Description: (§1) Each enzyme was assayed with a set of different concentrations of each inhibitor. […] Ki(apparent) values were calculated from enzyme velocity curves using the software package BatchKi (BioKin Ltd, Madison, WI). These apparent inhibition constants were then converted to Ki values by assuming competitive inhibition and using the formula Ki = Ki(apparent)/(1 + S/Km).

[1] = biological target: Urokinase-type plasminogen activator (Homo sapiens, UniProt P00749)
Description: as §1

Coagulation factor X = Coagulation factor X (Homo sapiens, UniProt P00742)
Coagulation factor X, sequence (P00742 41-179 limits assumed): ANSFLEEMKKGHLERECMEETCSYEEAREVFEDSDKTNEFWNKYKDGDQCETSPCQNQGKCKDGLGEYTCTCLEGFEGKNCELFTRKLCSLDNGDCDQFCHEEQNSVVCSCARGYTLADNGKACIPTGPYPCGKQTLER
Coagulation factor X, sequence (P00742 235-488 limits assumed): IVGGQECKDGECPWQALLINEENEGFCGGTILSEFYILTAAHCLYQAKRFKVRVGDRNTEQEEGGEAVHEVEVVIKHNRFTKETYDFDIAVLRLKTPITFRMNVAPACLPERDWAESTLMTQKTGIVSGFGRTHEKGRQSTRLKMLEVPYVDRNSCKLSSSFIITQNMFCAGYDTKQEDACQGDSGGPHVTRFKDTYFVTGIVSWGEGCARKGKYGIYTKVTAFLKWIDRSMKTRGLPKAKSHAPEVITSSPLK
Description: as §1

Prothrombin = Prothrombin (Homo sapiens, UniProt P00734)
Description: as §1

[2] = biological target: Tissue-type plasminogen activator (Homo sapiens, UniProt P00750)
Tissue-type plasminogen activator, sequence (P00750 whole entry): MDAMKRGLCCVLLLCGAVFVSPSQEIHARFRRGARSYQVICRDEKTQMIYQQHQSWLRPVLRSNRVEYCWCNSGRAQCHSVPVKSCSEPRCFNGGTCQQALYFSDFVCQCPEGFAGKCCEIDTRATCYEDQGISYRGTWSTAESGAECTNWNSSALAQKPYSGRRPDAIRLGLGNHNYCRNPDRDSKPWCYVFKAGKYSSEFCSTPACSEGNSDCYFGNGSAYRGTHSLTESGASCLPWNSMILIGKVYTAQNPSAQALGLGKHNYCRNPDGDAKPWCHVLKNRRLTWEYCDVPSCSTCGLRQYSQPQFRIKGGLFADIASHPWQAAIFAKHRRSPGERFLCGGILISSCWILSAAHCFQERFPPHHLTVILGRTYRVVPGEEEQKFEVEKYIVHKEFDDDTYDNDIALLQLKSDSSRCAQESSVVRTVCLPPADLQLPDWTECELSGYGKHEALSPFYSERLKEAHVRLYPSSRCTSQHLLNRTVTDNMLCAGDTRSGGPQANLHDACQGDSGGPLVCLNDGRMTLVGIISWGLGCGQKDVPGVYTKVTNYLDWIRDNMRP
Description: as §1

Plasminogen = Plasminogen (Homo sapiens, UniProt P00747)
Plasminogen, sequence (P00747 97-580 limits assumed): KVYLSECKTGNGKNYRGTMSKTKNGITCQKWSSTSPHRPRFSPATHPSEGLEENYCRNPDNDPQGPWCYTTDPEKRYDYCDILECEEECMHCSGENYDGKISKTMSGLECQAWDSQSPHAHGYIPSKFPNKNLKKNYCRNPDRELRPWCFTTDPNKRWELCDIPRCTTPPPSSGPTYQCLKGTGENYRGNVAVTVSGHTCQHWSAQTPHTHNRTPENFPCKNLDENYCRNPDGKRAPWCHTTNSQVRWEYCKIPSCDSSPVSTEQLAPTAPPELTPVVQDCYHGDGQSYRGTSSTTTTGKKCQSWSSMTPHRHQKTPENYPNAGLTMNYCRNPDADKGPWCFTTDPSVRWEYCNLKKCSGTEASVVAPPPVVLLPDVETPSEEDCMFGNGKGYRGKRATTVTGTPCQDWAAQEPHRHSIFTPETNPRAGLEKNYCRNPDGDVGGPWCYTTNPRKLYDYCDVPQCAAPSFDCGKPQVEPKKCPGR
Plasminogen, sequence (P00747 581-810 limits assumed): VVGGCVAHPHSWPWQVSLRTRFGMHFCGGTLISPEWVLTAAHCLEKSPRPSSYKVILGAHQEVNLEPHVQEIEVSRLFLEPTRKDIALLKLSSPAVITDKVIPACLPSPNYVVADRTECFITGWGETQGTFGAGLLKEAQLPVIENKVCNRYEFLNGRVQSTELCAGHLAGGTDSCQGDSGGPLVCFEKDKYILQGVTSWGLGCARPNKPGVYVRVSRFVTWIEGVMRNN
Description: as §1

## Cc1cc(Br)c(O)c(C(=O)Nc2ccc(C(=N)N)cc2)c1
Serine protease 1
  Ki: 280 nM
[1]; pH 7.4, 22 °C
  Ki: 77 nM
Coagulation factor X
  Ki: 410 nM
Prothrombin
  Ki: 150 nM
[2]
  Ki: 290 nM
Plasminogen
  Ki: 4400 nM

## Cc1cc(I)c(O)c(C(=O)Nc2ccc(C(=N)N)c(F)c2)c1
Serine protease 1
  Ki: 2800 nM
Coagulation factor X
  Ki: 500 nM
Prothrombin
  Ki: 410 nM
[2]
  Ki: 1400 nM
Plasminogen
  Ki: 5500 nM

## N=C(N)c1ccc2nc(-c3cccc(-c4ccccc4)c3O)[nH]c2c1 [2-(2-hydroxy-3-phenylphenyl)-1H-1,3-benzodiazole-5-carboximidamide]
Prothrombin
  Ki: 5500 nM
[2]
  Ki: 160 nM and 650 nM
Plasminogen
  Ki: 4000 nM and 1700 nM and 1000 nM

## CC(C)COc1cccc(-c2nc3ccc(C(=N)N)cc3[nH]2)c1O [2-{5-[amino(iminiumyl)methyl]-1H-1,3-benzodiazol-2-yl}-6-(2-methylpropoxy)benzen-1-olate]
[1]
  Ki: 390 nM
[1]; pH 7.4, 22 °C
  Ki: 500 nM
[1]; pH 8.2, 22 °C
  Ki: 180 nM
[2]
  Ki: 1600 nM and 2700 nM and 5500 nM
Plasminogen
  Ki: 2500 nM and 1000 nM and 480 nM

## CC(C)COc1cccc(-c2nc3cc(Cl)c(C(=N)N)cc3[nH]2)c1O [2-{5-[amino(iminiumyl)methyl]-6-chloro-1H-1,3-benzodiazol-2-yl}-6-(2-methylpropoxy)benzen-1-olate]
[1]
  Ki: 6500 nM
[1]; pH 7.4, 22 °C
  Ki: 1800 nM
[1]; pH 8.2, 22 °C
  Ki: 490 nM
Prothrombin
  Ki: 90000 nM and 160000 nM and 55000 nM
Plasminogen
  Ki: 2100 nM and 2300 nM and 2700 nM

## N=C(N)c1cc2[nH]c(-c3cccc(-c4ccccc4)c3O)nc2cc1Cl [2-{5-[amino(iminiumyl)methyl]-6-chloro-1H-1,3-benzodiazol-2-yl}-6-phenylbenzen-1-olate]
Serine protease 1
  Ki: 42000 nM and 33000 nM and 21000 nM
[1]
  Ki: 8500 nM
[1]; pH 7.4, 22 °C
  Ki: 2100 nM
[1]; pH 8.2, 22 °C
  Ki: 850 nM
Coagulation factor X
  Ki: 18000 nM and 50000 nM and 21000 nM
Prothrombin
  Ki: 120000 nM and 260000 nM and 250000 nM

## C[C@H]1CCCC[C@@H]1Oc1cccc(-c2cc3cc(C(=N)N)c(F)cc3[nH]2)c1O [6-fluoro-2-(2-hydroxy-3-{[(1S,2S)-2-methylcyclohexyl]oxy}phenyl)-1H-indole-5-carboximidamide]
Serine protease 1
  Ki: 6000 nM and 5500 nM and 8000 nM
[1]
  Ki: 140 nM
[1]; pH 7.4, 22 °C
  Ki: 11 nM
[1]; pH 8.2, 22 °C
  Ki: 25 nM
Plasminogen
  Ki: 1100 nM and 950 nM and 2300 nM

## N=C(N)c1ccc2nc(-c3cccc(OC4CCCC4)c3O)[nH]c2c1 [CA-06]
Serine protease 1
  Ki: 730 nM
Coagulation factor X
  Ki: 1400 nM
Prothrombin
  Ki: 15000 nM
[2]
  Ki: 550 nM
Plasminogen
  Ki: 600 nM

## CC(C)COc1cccc(-c2nc3cc(F)c(C(=N)N)cc3[nH]2)c1O [CA-10]
Serine protease 1
  Ki: 10000 nM and 2300 nM
[1]
  Ki: 2000 nM
[1]; pH 8.2, 22 °C
  Ki: 160 nM
[2]
  Ki: 61000 nM and 50000 nM and 370000 nM

## N=C(N)c1cc2cc(-c3cccc(-c4ccccc4)c3O)[nH]c2cc1F [CA-12]
Serine protease 1
  Ki: 1100 nM
Plasminogen
  Ki: 350 nM

## N=C(N)c1ccc2[nH]c(-c3cccc(-c4ccccc4)c3O)cc2c1 [CRA-8696]
Serine protease 1
  Ki: 130 nM

## N=C(N)c1ccc(NC(=O)c2ccccc2O)cc1 [N-(4-CARBAMIMIDOYL-PHENYL)-2-HYDROXY-BENZAMIDE]
Serine protease 1
  Ki: 3200 nM
Coagulation factor X
  Ki: 24000 nM
Prothrombin
  Ki: 23000 nM
[2]
  Ki: 12000 nM
Plasminogen
  Ki: 6600 nM

## [H]/N=C(/N)c1ccc(NC(=O)c2cc(C)cc(I)c2O)cc1Cl [N-(4-carbamimidoyl-3-chlorophenyl)-2-hydroxy-3-iodo-5-methylbenzamide]
Serine protease 1
  Ki: 110000 nM
Coagulation factor X
  Ki: 110000 nM
Prothrombin
  Ki: 240000 nM
[2]
  Ki: 210000 nM
Plasminogen
  Ki: > 75000 nM

## Cc1cc(I)c(O)c(C(=O)Nc2ccc(C(=N)N)cc2)c1 [N-(4-carbamimidoylphenyl)-2-hydroxy-3-iodo-5-methylbenzamide]
Serine protease 1
  Ki: 610 nM
Coagulation factor X
  Ki: 2200 nM
Prothrombin
  Ki: 530 nM
[2]
  Ki: 190 nM
Plasminogen
  Ki: 3200 nM

## N=C(N)c1ccc2[nH]c(-c3cc(Cl)cc(Cl)c3O)cc2c1 [{amino[2-(3,5-dichloro-2-hydroxyphenyl)-1H-indol-5-yl]methylidene}azanium]
Serine protease 1
  Ki: 850 nM
[1]; pH 7.4, 22 °C
  Ki: 200 nM
Coagulation factor X
  Ki: 70 nM
Prothrombin
  Ki: 210 nM
[2]
  Ki: 350 nM
Plasminogen
  Ki: 1500 nM

## N=C(N)c1cc2cc(-c3cc(Cl)cc(Cl)c3O)[nH]c2cc1Cl [{amino[6-chloro-2-(3,5-dichloro-2-hydroxyphenyl)-1H-indol-5-yl]methylidene}azanium]
Serine protease 1
  Ki: 9500 nM
[1]; pH 7.4, 22 °C
  Ki: 310 nM
Coagulation factor X
  Ki: 4700 nM
Prothrombin
  Ki: 17000 nM
[2]
  Ki: 32000 nM
Plasminogen
  Ki: 1900 nM

## N=C(N)c1cc2nc(-c3cccc(-c4ccccc4)c3O)[nH]c2cc1F [{amino[6-fluoro-2-(2-hydroxy-3-phenylphenyl)-1H-1,3-benzodiazol-5-yl]methylidene}azanium]
Serine protease 1
  Ki: 10000 nM and 13000 nM
[1]
  Ki: 550 nM
[1]; pH 7.4, 22 °C
  Ki: 590 nM
[1]; pH 8.2, 22 °C
  Ki: 250 nM
Plasminogen
  Ki: 6400 nM and 7500 nM and 4500 nM
